Columns and labels:
LLC-PK1 cells = experiment: Conventional transport assay (CTA), diffusion over a cellular monolayer; format: in vitro ADME, porcine; conditions: zosuquidar present, both directions, 100 nM
Excerpt: We first sought to investigate whether buparlisib (Fig. 1A) is transported by P-gp or BCRP in vitro using concentration equilibrium transport assays (CETAs). CETAs are sensitive assays to determine translocation over a cellular monolayer and are frequently used to determine substrate affinity for ABC transporters by comparing cell lines that overexpress ABC transporters with their parental counterparts[24]–[26]. Since P-gp and BCRP are apically located transporters, a prerequisite for detecting substrate affinity for these transporters in a CETA is the capacity of a molecule to penetrate cell membranes. We therefore first confirmed that buparlisib could efficiently diffuse over a cellular monolayer using a conventional transwell set-up. […]
Conventional bidirectional transport assays (CTAs) and concentration equilibrium transport assays (CETAs) were performed as described previously. […] Transwell leakiness was determined as Carboxyl-[^14C]-inulin translocation exceeding 1.5% per hour and these wells were excluded from the analysis.
To prepare buparlisib transport assay samples for LC-MS/MS analysis, 10 μL medium samples were mixed with 30 μL of acetonitrile:formic acid (100:1 v/v). After centrifugation, the supernatant was 5-fold diluted in water and the buparlisib concentration was measured using an LC-MS/MS system as described below.

[1] = Plasma and brain levels after oral administration in wildtype mice; format: in vivo, FVB mice
Description: First, we could confirm that buparlisib also achieves excellent brain penetration after oral administration, since the observed brain-plasma ratio in WT FVB mice was in line with those obtained following i.v. administration (Figs 2C, 3A).
Figure 3 Buparlisib has excellent intracranial target engagement and oral bioavailability. (A) Buparlisib was orally administered to wildtype mice at a dose of 1 mg/kg, 2 mg/kg or 5 mg/kg. One hour after injection, blood and tissues were collected for LC-MS/MS analysis. Buparlisib plasma and brain levels increase dose-dependently, yielding similar and excellent brain-plasma ratios at all dose levels that were tested. (B) Immunoblotting of brain tissue lysates from (A). […] (C) Plasma-time curves of male and female wildtype mice following intravenous (2 mg/kg) or oral (5 mg/kg) administration. […] The oral bioavailability of buparlisib is excellent, since oral and intravenous administration yielded similar dose-adjusted AUCs (see Table 1). All data are represented as mean ± SD (n = 4).
The pharmacokinetics of buparlisib were analysed in WT, Abcg2^−/−, Abcb1a/b^−/− and Abcb1a/b; Abcg2^−/− FVB mice. All knockout mice strains have been developed within our institute[41]–[43]. For i.v. administration, buparlisib was dissolved in DMSO and injected at a dose of 2 mg/kg. For oral administration, buparlisib was formulated in DMSO:Cremophor EL:water (1:1:8 v/v/v) and administered at 1, 2 or 5 mg/kg as indicated. Tail vein bleeding was used to collect blood at intermediate time points, whereas at the last time point blood was drawn by cardiac puncture and various tissue were collected. Plasma was obtained from whole blood by centrifugation (5 min, 5,000 rpm, 4 °C). After weighing, tissues were homogenized using a FastPrep®-24 (MP-Biomedicals, NY) in 1% (w/v) bovine serum albumin in water. […]
Buparlisib was measured in samples from in vitro transport assays and in vivo pharmacokinetic studies using an LC-MS/MS system comprised of an UltiMate 3000 LC Systems (Dionex, Sunnyvale, CA) and an API 4000 mass spectrometer (Sciex, Framingham, MA). […]

[2] = humans; cited from earlier work

For `Nc1cc(C(F)(F)F)c(-c2cc(N3CCOCC3)nc(N3CCOCC3)n2)cn1` [buparlisib], which “time to plateau to almost complete equilibrium between apical and basal compartments” value (LLC-PK1 cells) is on record?
Its value is at most 4 h.

And the Kp at 1 h ([1]; FVB, mouse, brain/plasma, other: intravenous and oral, i.v. 2 mg/kg and oral 1, 2, 5 mg/kg (Figs 2C, 3A), read-out: brain-plasma ratio)?
Its Kp at 1 h is 1.5 to 2.

What about the concentration at 1 h ([1]; FVB, mouse, plasma, 5 mg/kg oral, WT mice, 1 hour, read-out: plasma level) of the same molecule?
The concentration at 1 h was about 1200 ng/mL.

What about the “change of plasma and brain concentrations with dose” value ([1]; oral 1, 2, 5 mg/kg, WT mice, 1 hour) of the same molecule?
Its value is “dose-proportional increase”.

What about the maximum tolerated dose [2] of the same molecule?
Its maximum tolerated dose is 100 mg per day.
